Consider 23 compounds from US11332472B2, “Substituted piperidines as inhibitors of ubiquitin specific protease 7” (LES LABORATOIRES SERVIER, priority 2017, dated 2022).

T1 sequence (Q93009 208-560 C315A): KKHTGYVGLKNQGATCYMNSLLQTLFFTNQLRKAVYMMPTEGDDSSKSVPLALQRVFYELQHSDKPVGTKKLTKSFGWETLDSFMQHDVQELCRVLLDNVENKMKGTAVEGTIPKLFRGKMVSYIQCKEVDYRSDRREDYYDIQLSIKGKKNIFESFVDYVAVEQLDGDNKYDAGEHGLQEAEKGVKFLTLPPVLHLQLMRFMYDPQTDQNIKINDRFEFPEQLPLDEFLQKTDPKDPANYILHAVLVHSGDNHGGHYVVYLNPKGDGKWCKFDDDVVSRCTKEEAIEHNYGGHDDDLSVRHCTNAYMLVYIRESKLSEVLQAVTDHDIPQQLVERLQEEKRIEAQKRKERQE

This test addresses T1, USP7 (Homo sapiens, UniProt Q93009, C315A).
T1 construct: 0.25 nM His-His-USP7 (aa208-560, [C315A]) was incubated with compound; His-His (N)
Description: Inhibition of USP7 by Fluorescence Intensity (FLINT) readings, Ubiquitin-Rhodamine-110 substrate. Format: biochemical. The note with it: 0.25 nM His-His-USP7 (aa208-560, [C315A]); compound 60 minutes at 30° C.; 500 nM Ubiquitin-Rhodamine substrate; 11-point curves. On the procedure: USP7 activity was measured using Rhodamine-110 c-terminal labelled Ubiquitin as a substrate (Viva Biosciences). Incubation with USP7 results in the release of Rhodamine-110 leading to an increase in fluorescence which can be used in the continuous measurement of USP7 activity.
The USP7 reactions were performed in a 50 μL volume, in 384 well black solid low binding plates (Corning #3575). The reaction buffer consisted of 100 mM Bicine pH 8.0, 0.01% TritonX 100, 1 mM TCEP, and 10% DMSO.
0.25 nM His-His-USP7 (aa208-560, [C315A]) was incubated with compound (final concentration 10% DMSO) for 60 minutes at 30° C. The reaction was then initiated by the addition of 500 nM Ubiquitin-Rhodamine-10 substrate and the plate read every 3 minutes for 21 minutes to measure the release of Rhodamine-110. Fluorescence Intensity (FLINT) readings were measured using a Biomek Neo plate reader (Ex. 485 nm. Em. 535 nm).
The inhibition of increasing doses of compound was expressed as a percentage reduction in kinetic rate compared to the kinetic rates established between ‘DMSO only’ and ‘total inhibition’ controls (no USP7). The inhibitory concentrations that gave a 50% reduction in kinetic rate (IC50) were determined, from 11-point dose response curves, in XL-Fit using a 4-Parameter Logistic Model (Sigmoidal Dose-Response Model).
The compound `O=C([C@@H]1CCCC[C@H]1c1ccsc1)N1CCC(O)(Cn2cnc3cccnc3c2=O)CC1` (relative stereo) [Example 1, 3-[[4-hydroxy-1-[trans-2-(3-thienyl)cyclohexanecarbonyl]-4-piperidyl]methyl]pyrido[3,2-d]pyrimidin-4-one] had an IC50 of 916 nM.
In the case of `Cn1ccc2c(=O)n(CC3(O)CCN(C(=O)[C@@H]4CCCC[C@H]4c4ccsc4)CC3)cnc21` (relative stereo) [Example 2, 3-[[4-hydroxy-1-[trans-2-(3-thienyl)cyclohexanecarbonyl]-4-piperidyl]methyl]-7-methyl-pyrrolo[2,3-d]pyrimidin-4-one], the IC50 worked out at 439 nM.
The same measure for `Cn1ccc2c(=O)n(CC3(O)CCN(C(=O)[C@@H]4CCCC[C@H]4c4ccoc4)CC3)cnc21` (relative stereo) [Example 3, 3-[[1-[trans-2-(3-furyl)cyclohexanecarbonyl]-4-hydroxy-4-piperidyl]methyl]-7-methyl-pyrrolo[2,3-d]pyrimidin-4-one]: 530 nM; for `O=C([C@@H]1CCCC[C@H]1c1ccoc1)N1CCC(O)(Cn2cnc3cccnc3c2=O)CC1` (relative stereo) [Example 4, 3-[[1-[trans-2-(3-furyl)cyclohexanecarbonyl]-4-hydroxy-4-piperidyl]methyl]pyrido[3,2-d]pyrimidin-4-one]: 4580 nM; for `O=C([C@@H]1CCO[C@H]1c1ccccc1)N1CCC(O)(Cn2cnc3c(ccn3-c3ccccc3)c2=O)CC1` (relative stereo) [Example 46, 3-[[4-hydroxy-1-[trans-2-phenyltetrahydrofuran-3-carbonyl]-4-piperidyl]methyl]-7-phenyl-pyrrolo[2,3-d]pyrimidin-4-one]: 685 nM.
The same measure for `O=C([C@@H]1CCCC(F)(F)[C@H]1c1ccccc1)N1CCC(O)(Cn2cnc3c(ccn3-c3ccccc3)c2=O)CC1` (relative stereo) [Example 51, 3-[[1-[trans-3,3-difluo-2-phenyl-cyclohexanecarbonyl]-4-hydroxy-4-piperidyl]methyl]-7-phenyl-pyrrolo[2,3-d]pyrimidin-4-one]: 10100 nM; for `O=C([C@@H]1CCC(F)(F)C[C@H]1c1cccs1)N1CCC(O)(Cn2cnc3c(ccn3-c3ccccc3)c2=O)CC1` (relative stereo) [Example 71, 3-[[1-[trans-4,4-difluoro-2-(2-thienyl)cyclohexanecarbonyl]-4-hydroxy-4-piperidyl]methyl]-7-phenyl-pyrrolo[2,3-d]pyrimidin-4-one]: 162 nM; for `COc1ccc(-n2ccc3c(=O)n(CC4(O)CCN(C(=O)[C@@H]5CCC(F)(F)C[C@H]5c5ccoc5)CC4)cnc32)cc1` (relative stereo) [Example 74, 3-[[1-[trans-4,4-difluoro-2-(3-fury)cyclohexanecarbonyl]-4-hydroxy-4-piperidyl]methyl]-7-(4-methoxyphenyl)pyrrolo[2,3-d]pyrimidin-4-one]: 2900 nM.
With `O=C([C@@H]1CCC(F)(F)C[C@H]1c1cnco1)N1CCC(O)(Cn2cnc3c(Cl)scc3c2=O)CC1` (relative stereo) [Example 76, 7-chloro-3-[[1-[trans-4,4-difluoro-2-oxazol-5-yl-cyclohexanecarbonyl]-4-hydroxy-4-piperidyl]methyl]thieno[3,4-d]pyrimidin-4-one] the figure was 6640 nM; with `O=C([C@@H]1CCC(F)(F)C[C@H]1c1cocn1)N1CCC(O)(Cn2cnc3c(-c4ccc(CO)cc4)scc3c2=O)CC1` (relative stereo) [Example 77, 3-[[1-[trans-4,4-difluoro-2-oxazol-4-yl-cyclohexanecarbonyl]-4-hydroxy-4-piperidyl]methyl]-7-[4-(hydroxymethyl)phenyl]thieno[3,4-d]pyrimidin-4-one], 591 nM.
Regarding `O=C([C@@H]1CCC(F)(F)C[C@H]1c1ccncc1)N1CCC(O)(Cn2cnc3c(-c4ccccc4)scc3c2=O)CC1` (relative stereo) [Example 84, 3-[[1-[trans-4,4-difluoro-2-(4-pyridyl)cyclohexanecarbonyl]-4-hydroxy-4-piperidyl]methyl]-7-phenyl-thieno[3,4-d]pyrimidin-4-one], the IC50 amounted to 611 nM.
With `Cc1cc([C@@H]2CC(F)(F)CC[C@H]2C(=O)N2CCC(O)(Cn3cnc4c(-c5ccccc5)scc4c3=O)CC2)cs1` (relative stereo) [Example 90, 3-[[1-[trans-4,4-difluoro-2-(S-methyl-3-thienyl)cyclohexanecarbonyl]-4-hydroxy-4-piperidyl]methyl]-7-phenyl-thieno[3,4-d]pyrimidin-4-one] the figure was 2920 nM; with `O=C([C@@H]1CCCC[C@H]1c1ccccc1)N1CCC(O)(Cn2cnc3sccc3c2=O)CC1` (relative stereo) [Example 91, 3-[[4-hydroxy-1-(trans-2-phenylcyclohexanecarbonyl)-4-piperidyl]methyl]thieno[2,3-d]pyrimidin-4-one], 137 nM.
The same measure for `O=C([C@@H]1CCCC[C@H]1c1ccccc1)N1CCC(O)(Cn2cnc3cccnc3c2=O)CC1` (relative stereo) [Example 93, 3-[[4-hydroxy-1-(trans-2-phenylcyclohexanecarbonyl)-4-piperidyl]methyl]pyrido[3,2-d]pyrimidin-4-one]: 171 nM; for `COc1ccc(CNc2ccc3ncn(CC4(O)CCN(C(=O)[C@@H]5CCCC[C@H]5c5ccccc5)CC4)c(=O)c3n2)cc1` (relative stereo) [Example 94, 3-[[4-hydroxy-1-(trans-2-phenylcyclohexanecarbonyl)-4-piperidyl]methyl]-6-[(4-methoxyphenyl)methylamino]pyrido[3,2-d]pyrimidin-4-one]: 351 nM.
With `Nc1ccc2ncn(CC3(O)CCN(C(=O)[C@@H]4CCCC[C@H]4c4ccccc4)CC3)c(=O)c2n1` (relative stereo) [Example 100, 6-amino-3-[[4-hydroxy-1-(trans-2-phenylcyclohexanecarbonyl)-4-piperidyl]methyl]pyrido[3,2-d]pyrimidin-4-one] the figure was 226 nM.
Take `O=C(Nc1ccc2ncn(CC3(O)CCN(C(=O)[C@@H]4CCCC[C@H]4c4ccccc4)CC3)c(=O)c2n1)C1CCOC1` (relative stereo) [Example 101, N-[3-[[4-hydroxy-1-(trans-2-phenylcyclohexanecarbonyl)-4-piperidyl]methyl]-4-oxo-pyrido[3,2-d]pyrimidin-6-yl]tetrahydrofuran-3-carboxamide]: the IC50 stood at 99.6 nM.
`O=C(Nc1ccc2ncn(CC3(O)CCN(C(=O)[C@@H]4CCCC[C@H]4c4ccccc4)CC3)c(=O)c2n1)C1CCCC1O` (relative stereo) [Example 103, 2-hydroxy-N-[3-[[4-hydroxy-1-(trans-2-phenylcyclohexanecarbonyl)-4-piperidyl]methyl]4-oxo-pyrido[3,2-d]pyrimidin-6-yl]cyclopentanecarboxamide] registered an IC50 of 125 nM.
With `O=C(Cc1cccc(O)c1)Nc1ccc2ncn(CC3(O)CCN(C(=O)[C@@H]4CCCC[C@H]4c4ccccc4)CC3)c(=O)c2n1` (relative stereo) [Example 104, 2-(3-hydroxyphenyl)-N-[3-[[4-hydroxy-1-(trans-2-phenylcyclohexanecarbonyl)-4-piperidyl]methyl]-4-oxo-pyrido[3,2-d]pyrimidin-6-yl]acetamide] the figure was 21.7 nM; with `O=C(CC1CCCO1)Nc1ccc2ncn(CC3(O)CCN(C(=O)[C@@H]4CCCC[C@H]4c4ccccc4)CC3)c(=O)c2n1` (relative stereo) [Example 106, N-[3-[[4-hydroxy-1-(trans-2-phenylcyclohexanecarbonyl)-4-piperidyl]methyl]-4-oxo-pyrido[3,2-d]pyrimidin-6-yl]-2-tetrahydrofuran-2-yl-acetamide], 100 nM.
The same measure for `COc1ccc(C(=O)Nc2ccc3ncn(CC4(O)CCN(C(=O)[C@@H]5CCCC[C@H]5c5ccccc5)CC4)c(=O)c3n2)cc1` (relative stereo) [Example 107, N-[3-[[4-hydroxy-1-(trans-2-phenylcyclohexanecarbonyl)-4-piperidyl]methyl]-4-oxo-pyrido[3,2-d]pyrimidin-6-yl]-4-methoxy-benzamide]: 102 nM; for `NC(=O)CSCCC(=O)Nc1ccc2ncn(CC3(O)CCN(C(=O)[C@@H]4CCCC[C@H]4c4ccccc4)CC3)c(=O)c2n1` (relative stereo) [Example 108, 3-(2-amino-2-oxo-ethyl)sulfanyl-N-[3-[[4-hydroxy-1-(trans-2-phenylcyclohexanecarbonyl)-4-piperidyl]methyl]-4-oxo-pyrido[3,2-d]pyrimidin-6-yl]propanamide]: 76.5 nM; for `O=C([C@@H]1CCCC[C@H]1c1ccccc1)N1CCC(O)(Cn2cnc3c(ccn3Cc3cccnc3)c2=O)CC1` (relative stereo) [Example 109, 3-[[4-hydroxy-1-(trans-2-phenylcyclohexanecarbonyl)-4-piperidyl]methyl]-7-(3-pyridylmethyl)pyrrolo[2,3-d]pyrimidin-4-one]: 1010 nM.

For orientation: IC50 means the concentration at which inhibition is half-maximal. Read a high IC50 as weaker potency in that assay.
